Data taken from article PMC6267684, “Pharmacokinetic evaluation of the PNC disassembler metarrestin in wild-type and Pdx1-Cre;LSL-Kras^G12D/+;Tp53^R172H/+ (KPC) mice, a genetically engineered model of pancreatic cancer” (Cancer Chemotherapy and Pharmacology, 2018).
Like-named read-outs stand apart in the source and are kept apart here.

Test: Pharmacokinetics in C57BL/6 mice after single IV and PO administration
Assay type: in vivo
Conditions: for Kp: liver/plasma, read-out: AUC0–∞ ratio (tissue/plasma); for AUC(0-t): read-out: AUC0–24h
Description: For pharmacokinetic studies, metarrestin solutions prepared in 30% PEG-400 and 70% (20% w:v HP-β-CD in water) solution were administered to C57BL/6 mice at 3 mg/kg IV via tail vein injection, or 3 and 10 mg/kg orally via gavage. KPC mice were additionally treated with 25 mg/kg PO via gavage. The dosing volume was 3 mL/kg for IV route and 10 mL/kg for PO route. Dosing solutions were prepared on the day of administration. Blood samples were collected at 10, 20 min, 1, 2, 4, 7 and 24 h after 3 mg/kg IV administration. After oral administration of 3 and 10 mg/kg in C57BL6 mice, blood and liver samples were collected at 10 min, 0.5, 1, 2, 3, 5, 7, 9 and 24 h post dosing (n = 3 per time point). In KPC mice, blood, pancreatic tumor, spleen and liver samples were collected at 1, 2, 3, 6, 9, 12 and 24 h after 25 mg/kg PO administration.
Blood samples were collected in K2EDTA tubes and plasma was harvested after centrifugation at 3000 rpm for 10 min. Tissue samples were weighed and flash-frozen for PK and PD mRNA expression analyses, embedded into OCT blocks for PNC determination and processed into FFPE blocks for histopathology assessment. All PK samples were stored at − 80 °C until analysis.
An ultra-performance liquid chromatography–tandem mass spectrometry (UPLC–MS/MS) method was developed to determine metarrestin concentrations in plasma and tissue samples. Mass spectrometric analysis was performed on a Waters Xevo TQ-S triple quadrupole instrument using electrospray ionization in positive mode. The separation was performed on an Acquity BEH C18 column (50 × 2.1 mm, 1.7 µ) using a Waters Acquity UPLC system with 0.6 mL/min flow rate and gradient elution. Mobile phase A was 0.1% formic acid in water, and B was 0.1% formic acid in acetonitrile (ACN). The column temperature was maintained at 60 °C. The calibration standards and quality control (QC) samples were prepared in the control blank mouse plasma and tissue homogenate. Tissues were homogenized with 3 or 6 volumes (v/w) of deionized water on the day of analysis. Proteins were precipitated from 10 µL plasma or 5 µL tissue homogenate with 200 µL ACN containing 100 ng/mL Tolbutamide as internal standard in 96-well plates. The mixture was vortexed for 2 min and centrifuged at 4000 rpm for 30 min at 4 °C. An aliquot of 150 µL supernatant was transferred to a 350-µL 96-well plate. 0.2 µL supernatant was injected for the UPLC–MS/MS analysis. Data were analyzed using MassLynx V4.1.
The pharmacokinetic parameters were calculated using the non-compartmental approach (Models 200 and 201) of the pharmacokinetic software Phoenix WinNonlin, version 6.4 (Certara, St. Louis, MO). The area under the plasma concentration vs time curve (AUC) was calculated using the linear trapezoidal method. The slope of the apparent terminal phase was estimated by log linear regression using at least three data points and the terminal rate constant (λ) was derived from the slope. AUC0–∞ was estimated as the sum of the AUC0–t (where t is the time of the last measurable concentration) and Ct/λ. The apparent terminal half-life (t½) was calculated as 0.693/λ.

[1] = C57BL/6, mouse, liver, po, 3 mg/kg, 3 mg/kg PO single dose
[2] = C57BL/6, mouse, liver, po, 10 mg/kg, 10 mg/kg PO single dose
[3] = C57BL/6, mouse, liver, 3 mg/kg PO single dose
[4] = C57BL/6, mouse, liver, 10 mg/kg PO single dose
[5] = C57BL/6, mouse, plasma, 3 mg/kg IV single dose
[6] = C57BL/6, mouse, plasma, 3 mg/kg PO single dose
[7] = C57BL/6, mouse, plasma, 10 mg/kg PO single dose

## N=c1c2c(-c3ccccc3)c(-c3ccccc3)n(Cc3ccccc3)c2ncn1[C@H]1CC[C@H](O)CC1 [metarrestin, Trans-4-(7-benzyl-4-imino-5,6-diphenyl-4,7-dihydro-3H-pyrrolo[2,3-d]pyrimidin-3-yl) cyclohexanol]
[1]
  Kp: > 50
  half-life: 4.7 h
[2]
  Kp: > 50
  half-life: 4.1 h
C57BL/6, mouse, plasma, intravenous, oral, 10 mg/kg, low doses of 3 and 10 mg/kg, span over groups
  half-life: 5 to 5.6 h
C57BL/6, mouse, plasma, iv, 3 mg/kg, 3 mg/kg IV single dose
  half-life: ~5 h
C57BL/6, mouse, plasma, po, 3 mg/kg, 3 mg/kg PO single dose
  half-life: 5.4 h
C57BL/6, mouse, plasma, po, 10 mg/kg, single oral dose 3 and 10 mg/kg via gavage
  bioavailability: > 80%
C57BL/6, mouse, plasma, po, 10 mg/kg, 10 mg/kg PO single dose
  half-life: 5.6 h
[3]
  AUC(0-inf): 68600 ng·h/mL
  Cmax: 5420 ng/mL
  Tmax: 1 h
  AUC(0-t): 66100 ng·h/mL
[4]
  AUC(0-inf): 281000 ng·h/mL
  Cmax: 21400 ng/mL
  Tmax: 2 h
  AUC(0-t): 276000 ng·h/mL
[5]
  AUC(0-inf): 1040 ng·h/mL
  AUC(0-t): 1010 ng·h/mL
C57BL/6, mouse, plasma, 3 mg/kg IV single dose, read-out: CLp (plasma clearance)
  clearance: 48 mL/min/kg
C57BL/6, mouse, plasma, 3 mg/kg IV single dose, read-out: Vdss (steady-state volume of distribution)
  Vd: 17 L/kg
[6]
  AUC(0-inf): 871 ng·h/mL
  Cmax: 55.7 ng/mL
  Tmax: 2 h
  AUC(0-t): 823 ng·h/mL
[7]
  AUC(0-inf): 4790 ng·h/mL
  Cmax: 349 ng/mL
  Tmax: 2 h
  AUC(0-t): 4520 ng·h/mL
plasma, 3 mg/kg IV single dose, 3 mg/kg
  t 1/2: 5 h
